{
  "source": "patent US20240390369A1",
  "about": "“METHODS FOR DETERMINING RESPONSIVENESS TO TYK2 INHIBITORS” (Bristol-Myers Squibb Company, priority 2021, published 2024)",
  "tested_on": "patients with psoriatic arthritis",
  "assay": "Phase 2 trial in psoriatic arthritis: ACR20 response at week 16",
  "type": "in vivo, human",
  "conditions": "for Odds Ratio for ACR20 response / Interaction Term for ACR20 response (ratio of odds ratios): week 16",
  "description": "In a double-blind Phase 2 trial, 203 patients with psoriatic arthritis were randomized into three groups: deucravacitinib 6 mg once daily (N=70), deucravacitinib 12 mg once daily (N=67), or placebo (N=66). All subjects had active psoriatic arthritis according to the Classification Criteria for Psoriatic Arthritis (CASPAR); for active disease, these criteria required ≥3 tender joint count, ≥3 swollen joint count, and a C-reactive protein level above 3 mg/L. Other inclusion criteria included the following: presence of at least one plaque psoriasis lesion, and prior treatment failure with a non-biologic disease modifying anti-rheumatic drug, a non-steroidal anti-inflammatory drug, or a steroid. With respect to treatment history, approximately 70% of subjects had not received prior treatment with a biologic and were biologic naïve, while up to 30% of subjects had failed or had been intolerant to one TNF-inhibitor (TNF=Tumor necrosis factor, also known as TNFα). Randomization was stratified by prior TNF-inhibitor use (experienced/naïve) and body weight (<90 kg and ≥90 kg).\nClinical measures included the Psoriasis […] (PASI) score for skin psoriasis, American College of Rheumatology 20 (ACR20) response, Psoriatic Arthritis Disease Activity Score (PASDAS), Health Assessment Questionnaire-Disability Index (HAQ-DI), and Disease Activity Score 28 CRP (DAS28). To evaluate the predictive value of different protein measurements for the clinical response to deucravacitinib, baseline protein concentrations for responders and non-responders, as defined by ACR20 or PASI75 at week 16, were compared for each arm (placebo, 6 mg deucravacitinib once-daily, and 12 mg deucravacitinib once-daily).\nBoxplots for baseline protein level by response were generated with a horizontal line indicating the median protein level at baseline. For each treatment arm, a two-sample t-test was performed to test whether mean baseline serum protein level was different in responders versus non-responders. A Wilcoxon rank sum test (Mann-Whitney U test) was also performed to evaluate the difference in median serum protein level between responders and non-responders. Further, barplots of ACR20 and PASI75 response rate at week 16 for each treatment arm were generated for all subjects (protein level high and protein level low subjects, dichotomized according to median baseline level). Line plots of ACR20 and PASI75 response rate over time for each treatment arm were generated for protein level high and protein level low groups. Logistic regression models were also fit to evaluate associations between baseline protein levels and clinical outcome.\nFor certain analyses described herein, patients were dichotomized by median values (e.g., of the proteins listed above or other measures) into “high” and “low” groups, such that the high group had values above the median and the low group had values less than or equal to the median.\nIn addition, logistic regression models were fit for response measures ACR20 and PASI75, to generate the odds ratio of each of the deucravacitinib treatment arms versus placebo, in BD2-high and BD2-low groups. The following logistic regression models were used: • For ACR20 response status: ACR20 (Y/N)=treatment arm+BD2 group+treatment arm*BD2 group+TNF-inhibitor use+baseline weight (continuous). • For PASI75 response status: PASI75 (Y/N)=treatment arm+BD2 group+treatment arm*BD2 group+TNF-inhibitor use+baseline weight (continuous). […] FIGS. 26-31 are forest plots summarizing the logistic regression results of these models (for BD2 and other biomarkers described herein); each “N,” for “Placebo” and “Deucrava,” represents the number of responders in that group. […]",
  "data": [
    {"smiles": "[2H]C([2H])([2H])NC(=O)c1nnc(NC(=O)C2CC2)cc1Nc1cccc(-c2ncn(C)n2)c1OC", "note": "[deucravacitinib, 6-(cyclopropanecarboxamido)-4-((2-methoxy-3-(1-methyl-1H-1,2,4-triazol-3-yl)phenyl)amino)-N-(methyl-d3)pyridazine-3-carboxamide]", "values": [
      {"measurement": "Odds Ratio for ACR20 response", "setting": "BD2 high (baseline above median 9,265 ng/L), 6 mg QD vs placebo", "value": 4.54},
      {"measurement": "Odds Ratio for ACR20 response", "setting": "BD2 high (baseline above median 9,265 ng/L), 12 mg QD vs placebo", "value": 7.33},
      {"measurement": "Odds Ratio for ACR20 response", "setting": "BD2 high, treatment arms combined vs placebo", "value": 5.645},
      {"measurement": "Odds Ratio for ACR20 response", "setting": "BD2 low, 6 mg QD vs placebo", "value": 1.44},
      {"measurement": "Odds Ratio for ACR20 response", "setting": "BD2 low, 12 mg QD vs placebo", "value": 2.15},
      {"measurement": "Odds Ratio for ACR20 response", "setting": "BD2 low, treatment arms combined vs placebo", "value": 1.767},
      {"measurement": "Odds Ratio, ACR20 response status", "setting": "CRP high, 6 mg QD vs placebo", "value": 2.167},
      {"measurement": "Odds Ratio, ACR20 response status", "setting": "CRP high, 12 mg QD vs placebo", "value": 5.140},
      {"measurement": "Odds Ratio, ACR20 response status", "setting": "CRP high, treatment arms combined vs placebo", "value": 3.215},
      {"measurement": "Odds Ratio, ACR20 response status", "setting": "CRP low, 6 mg QD vs placebo", "value": 2.756},
      {"measurement": "Odds Ratio, ACR20 response status", "setting": "CRP low, 12 mg QD vs placebo", "value": 2.676},
      {"measurement": "Odds Ratio, ACR20 response status", "setting": "CRP low, treatment arms combined vs placebo", "value": 2.715},
      {"measurement": "Odds Ratio, ACR20 response status", "setting": "CRP-high, 6 mg QD vs placebo, adjusted for baseline DAS28", "value": 2.168},
      {"measurement": "Odds Ratio, ACR20 response status", "setting": "CRP-high, 12 mg QD vs placebo, adjusted for baseline DAS28", "value": 5.154},
      {"measurement": "Odds Ratio, ACR20 response status", "setting": "CRP-low, 6 mg QD vs placebo, adjusted for baseline DAS28", "value": 2.752},
      {"measurement": "Odds Ratio, ACR20 response status", "setting": "CRP-low, 12 mg QD vs placebo, adjusted for baseline DAS28", "value": 2.670},
      {"measurement": "Odds Ratio for ACR20 response", "setting": "IL-17A high (baseline above median 0.575 ng/L), 6 mg QD vs placebo", "value": 4.30},
      {"measurement": "Odds Ratio for ACR20 response", "setting": "IL-17A high (baseline above median 0.575 ng/L), 12 mg QD vs placebo", "value": 5.95},
      {"measurement": "ACR20 response rate at week 16", "setting": "IL-17A high group, 6 mg QD and 12 mg QD vs placebo (FIG. 22)", "value": "higher in both 6 mg QD and 12 mg QD treatment arms compared to placebo in the IL-17-high group"},
      {"measurement": "Odds Ratio for ACR20 response", "setting": "IL-17A high, treatment arms combined vs placebo", "value": 4.990},
      {"measurement": "Odds Ratio for ACR20 response", "setting": "IL-17A low, 6 mg QD vs placebo", "value": 1.39},
      {"measurement": "Odds Ratio for ACR20 response", "setting": "IL-17A low, 12 mg QD vs placebo", "value": 2.14},
      {"measurement": "Odds Ratio for ACR20 response", "setting": "IL-17A low, treatment arms combined vs placebo", "value": 1.723},
      {"measurement": "ACR20 response rate at week 16", "setting": "IL-19-high versus IL-19-low group (FIG. 15)", "value": "a much more pronounced treatment effect (indicating a dose response effect of deucravacitinib) was observed in the IL-19-high group than in the IL-19-low group"},
      {"measurement": "Odds Ratio for ACR20 response", "setting": "IL-19 high (baseline above median 36 ng/L), 6 mg QD vs placebo", "value": 4.68},
      {"measurement": "Odds Ratio for ACR20 response", "setting": "IL-19 high (baseline above median 36 ng/L), 12 mg QD vs placebo", "value": 11.44},
      {"measurement": "Odds Ratio for ACR20 response", "setting": "IL-19 high, treatment arms combined vs placebo", "value": 6.679},
      {"measurement": "Odds Ratio for ACR20 response", "setting": "IL-19 low, 6 mg QD vs placebo", "value": 1.41},
      {"measurement": "Odds Ratio for ACR20 response", "setting": "IL-19 low, 12 mg QD vs placebo", "value": 1.56},
      {"measurement": "Odds Ratio for ACR20 response", "setting": "IL-19 low, treatment arms combined vs placebo", "value": 1.487},
      {"measurement": "Interaction Term for ACR20 response (ratio of odds ratios)", "setting": "adjusted for baseline DAS28, 6 mg QD vs placebo: BD2-high versus BD2-low", "value": 3.06},
      {"measurement": "Interaction Term for ACR20 response (ratio of odds ratios)", "setting": "adjusted for baseline DAS28, 6 mg QD vs placebo: IL-17A-high versus IL-17A-low", "value": 3.08},
      {"measurement": "Interaction Term for ACR20 response (ratio of odds ratios)", "setting": "adjusted for baseline DAS28, 6 mg QD vs placebo: IL-19-high versus IL-19-low", "value": 3.32},
      {"measurement": "Interaction Term for ACR20 response (ratio of odds ratios)", "setting": "adjusted for baseline DAS28, 12 mg QD vs placebo: BD2-high versus BD2-low", "value": 3.42},
      {"measurement": "Interaction Term for ACR20 response (ratio of odds ratios)", "setting": "adjusted for baseline DAS28, 12 mg QD vs placebo: IL-17A-high versus IL-17A-low", "value": 2.75},
      {"measurement": "Odds Ratio for ACR20 response", "setting": "adjusted for baseline DAS28, All patients, 12 mg QD vs placebo", "value": 3.62},
      {"measurement": "Odds Ratio for ACR20 response", "setting": "adjusted for baseline DAS28, BD2-high, 6 mg QD vs placebo", "value": 4.42},
      {"measurement": "Odds Ratio for ACR20 response", "setting": "adjusted for baseline DAS28, BD2-low, 6 mg QD vs placebo", "value": 1.44},
      {"measurement": "Odds Ratio for ACR20 response", "setting": "adjusted for baseline DAS28, BD2-low, 12 mg QD vs placebo", "value": 2.14},
      {"measurement": "Odds Ratio for ACR20 response", "setting": "adjusted for baseline DAS28, IL-17A-high, 6 mg QD vs placebo", "value": 4.27},
      {"measurement": "Odds Ratio for ACR20 response", "setting": "adjusted for baseline DAS28, IL-17A-high, 12 mg QD vs placebo", "value": 5.92},
      {"measurement": "Odds Ratio for ACR20 response", "setting": "adjusted for baseline DAS28, IL-17A-low, 6 mg QD vs placebo", "value": 1.39},
      {"measurement": "Odds Ratio for ACR20 response", "setting": "adjusted for baseline DAS28, IL-19-high, 6 mg QD vs placebo", "value": 4.66},
      {"measurement": "Odds Ratio for ACR20 response", "setting": "adjusted for baseline DAS28, IL-19-high, 12 mg QD vs placebo", "value": 11.47},
      {"measurement": "Odds Ratio for ACR20 response", "setting": "adjusted for baseline DAS28, IL-19-low, 6 mg QD vs placebo", "value": 1.40},
      {"measurement": "Odds Ratio for ACR20 response", "setting": "adjusted for baseline DAS28, IL-19-low, 12 mg QD vs placebo", "value": 1.56},
      {"measurement": "Interaction Term for ACR20 response (ratio of odds ratios)", "setting": "treatment arms combined vs placebo: BD2 high versus BD2 low", "value": 3.195},
      {"measurement": "Interaction Term: treatment arm*CRP group, ACR20", "setting": "treatment arms combined vs placebo: CRP high versus CRP low", "value": 1.184},
      {"measurement": "Interaction Term for ACR20 response (ratio of odds ratios)", "setting": "treatment arms combined vs placebo: IL-17A high versus IL-17A low", "value": 2.886},
      {"measurement": "Interaction Term for ACR20 response (ratio of odds ratios)", "setting": "treatment arms combined vs placebo: IL-19 high versus IL-19 low", "value": 4.491}
    ]}
  ]
}
